Reference: PMC3867298 (Clinical cancer research : an official journal of the …, 2010)
Like-named read-outs stand apart in the source and are kept apart here. Marks after values point to notes of the source that are not given here.

Columns and labels:
[1] = tested on: patients with advanced solid tumors
[2] = tested on: H929 human plasmacytoma xenografts; details: vs vehicle; cited from earlier work
[3] = tested on: MDA-MB-231 breast cancer xenograft; details: MDA-MB-231 xenograft, with reduced tumor vascularization (CD31); cited from earlier work
[4] = cohort 1, 60 mg/m^2, 7 patients
[5] = cohort 2, 80 mg/m^2, 4 patients
[6] = cohort 3, 120 mg/m^2, 3 patients
[7] = cohort 4, 200 mg/m^2, 7 patients
[8] = cohort 5, 160 mg/m^2, 8 patients
[9] = expansion, 160 mg/m^2, 38 patients
[10] = treatment-related, worst grade per patient, all cycles, N = 67

In the case of `Cc1cc(Nc2cc(N3CCN(C)CC3)nc(/C=C/c3ccccc3)n2)n[nH]1` [ENMD-2076], the Adrenal insufficiency ([1]; all patients) is reported as “not observed”, the “Patients requiring dose reduction due to toxicity” value ([1]; at the MTD of 160 mg/m^2) is reported as 33% and the Patients with hypothyroidism ([1]; both in the expanded 160 mg/m^2 cohort) is reported as 2 patients. The “No. of patients with DLT (cycle 1)” value [1, 4] was 1 ^†, the “No. of patients with dose delays” value [1, 4] was 2 (29%) and the “No. patients with dose reductions” value [1, 4] was 1 (14%). For the same compound, the “No. of patients with DLT (cycle 1)” value [1, 5] was 0, the “No. of patients with dose delays” value [1, 5] was 3 (75%) and the “No. patients with dose reductions” value [1, 5] was 1 (25%). The “No. of patients with DLT (cycle 1)” value [1, 6] was 0, the “No. of patients with dose delays” value [1, 6] was 1 (33%) and the “No. patients with dose reductions” value [1, 6] was 0. For the same compound, the “No. of patients with dose delays” value [1, 7] was 7 (100%), the “No. patients with dose reductions” value [1, 7] was 3 (43%) and the “No. of patients with dose delays” value [1, 8] was 3 (38%). For the same compound, the “No. patients with dose reductions” value [1, 8] was 1 (13%), the “Patients with fatigue of grade 3 to 4 severity” value ([1]; expanded 160 mg/m^2 cohort) was 2 patients and the “Patients with tooth discoloration” value ([1]; expanded 160 mg/m^2 cohort) was “Four”. For the same compound, the “Patients with grade 3/4 neutropenia” value ([1]; expanded 160 mg/m^2 cohort, 2 of 38) was 5%, the “Patients with grade 1/2 neutropenia” value ([1]; expanded 160 mg/m^2 cohort, 3 of 38) was 8% and the Patients with fatigue ([1]; expanded 160 mg/m^2 cohort, 12/38) was 32%. The “No. of patients with DLT (met the definition of DLT)” value [1, 9] was 12 ^§, the “No. of patients with dose delays” value [1, 9] was 24 (63%) and the “No. patients with dose reductions” value [1, 9] was 14 (37%). The “Patients in whom hypertension resulted in dose delay or reduction” value ([1]; in vivo) was 16%, the “Recommended phase 2 dose” value ([1]; oral once daily, continuous dosing) was 160 mg/m^2 and the “Maximum tolerated dose (MTD)” value ([1]; oral, continuous once daily dosing) was 160 mg/m^2. The “Median time to onset of hypertension following initial dosing” value ([1]; range 2–60 days) was 14 days, the “Patients with hypertension of grade 3/4 severity” value ([1]; total patients) was 21% and the “Anorexia, any grade” value [1, 10] was 24%. For the same compound, the “Anorexia, grade 3, No. of patients” value [1, 10] was 0, the “Anorexia, grade 4, No. of patients” value [1, 10] was 0 and the “Constipation, any grade” value [1, 10] was 15%. For the same compound, the “Constipation, any grade, No. of patients” value [1, 10] was 10, the “Constipation, grade 3, No. of patients” value [1, 10] was 0 and the “Constipation, grade 4, No. of patients” value [1, 10] was 0. For the same compound, the “Dehydration, any grade, No. of patients” value [1, 10] was 12, the “Dehydration, grade 3” value [1, 10] was 1% and the “Dehydration, grade 3, No. of patients” value [1, 10] was 1. For the same compound, the “Dehydration, grade 4, No. of patients” value [1, 10] was 0, the “Diarrhea, any grade, No. of patients” value [1, 10] was 17 and the “Diarrhea, grade 3” value [1, 10] was 3%. For the same compound, the “Diarrhea, grade 3, No. of patients” value [1, 10] was 2, the “Diarrhea, grade 4, No. of patients” value [1, 10] was 0 and the “Dysgeusia, any grade” value [1, 10] was 10%. For the same compound, the “Dysgeusia, any grade, No. of patients” value [1, 10] was 7, the “Dysgeusia, grade 3, No. of patients” value [1, 10] was 0 and the “Dysgeusia, grade 4, No. of patients” value [1, 10] was 0. For the same compound, the “Dyspnea, any grade, No. of patients” value [1, 10] was 8, the “Dyspnea, grade 3” value [1, 10] was 4% and the “Dyspnea, grade 3, No. of patients” value [1, 10] was 3. For the same compound, the “Dyspnea, grade 4, No. of patients” value [1, 10] was 0, the “Fatigue, any grade” value [1, 10] was 31% and the “Fatigue, any grade, No. of patients” value [1, 10] was 21. The “Fatigue, grade 3” value [1, 10] was 3%, the “Fatigue, grade 3, No. of patients” value [1, 10] was 2 and the “Fatigue, grade 4, No. of patients” value [1, 10] was 0. The “Glossodynia, any grade, No. of patients” value [1, 10] was 11, the “Glossodynia, grade 3, No. of patients” value [1, 10] was 0 and the “Glossodynia, grade 4, No. of patients” value [1, 10] was 0. For the same compound, the “Hypertension, any grade, No. of patients” value [1, 10] was 37, the “Hypertension, grade 3, No. of patients” value [1, 10] was 12 and the “Hypertension, grade 4” value [1, 10] was 3%. The “Hypertension, grade 4, No. of patients” value [1, 10] was 2, the “Mucositis, any grade” value [1, 10] was 15% and the “Mucositis, any grade, No. of patients” value [1, 10] was 10. For the same compound, the “Mucositis, grade 3, No. of patients” value [1, 10] was 0, the “Mucositis, grade 4, No. of patients” value [1, 10] was 0 and the “Nausea/vomiting, any grade, No. of patients” value [1, 10] was 26. For the same compound, the “Nausea/vomiting, grade 3, No. of patients” value [1, 10] was 0, the “Nausea/vomiting, grade 4, No. of patients” value [1, 10] was 0 and the “Patients reporting related adverse events, grade 3” value [1, 10] was 28%. The “Patients reporting related adverse events, grade 3, No. of patients” value [1, 10] was 19, the “Patients reporting related adverse events, grade 4” value [1, 10] was 9% and the “Patients reporting related adverse events, grade 4, No. of patients” value [1, 10] was 6. The Tumor growth [2] was “Dose-dependent inhibition of tumor growth” and the Tumor response [3] was “regressions”.
